Source: patent publication US20250000881A1, “TREATMENT OF TREATMENT RESISTANT […] PSILOCYBIN” (COMPASS […], priority 2021, published 2025)

Columns and labels:
Format in all cases: in vivo, human
adult subjects with TRD [1] = test: Phase 2b trial in TRD: EQ-5D-3L and EuroQoL Visual Analogue Scale quality of life; conditions: 25 mg vs 1 mg, week 3
Procedure: (§1) Other objectives were to evaluate the effects of psilocybin on quality of life and wellbeing, functioning and associated disability, cognitive function, and anxiety compared to 1 mg psilocybin on: • (a) Quality of life in subject EuroQoL (EQ)-5 dimension-3 level scale (EQ-5D-3L) score change from Baseline to week 3. This will also be assessed at week 12. This assessment was not mandatory. • (b) Quality of life in caregiver EQ-5D-3L score change from Baseline to week 3. This was assessed at week 12. • (c) Functioning and associated disability in the Sheehan Disability Scale (SDS) score change from Baseline to week 3. This was also assessed at week 12. • (d) Cognitive function as measured by the Digit Symbol Substitution Test (DSST) score change from baseline to week 3. This was assessed at day 1 and week 12. • (e) Level of anxiety as measured using the change in Generalised Anxiety Disorder 7 item Scale (GAD-7) total score change from baseline to week 3. This was assessed at week 12. • (f) Subject determined level of depression as measured using the change in Quick Inventory of Depressive Symptomatology Self-Rated (QIDS-SR-16) total score from Baseline to week 3. […] This was assessed at week 12. • (h) To evaluate the impact of different psilocybin doses on real life functional activity estimated from passive data streams collected on a mobile app on subjects' mobile phones. […]

adult subjects with TRD [2] = test: Phase 2b trial in TRD: Positive and Negative Affect Schedule (PANAS); conditions: 25 mg vs 1 mg group, week 3
Procedure: as §1

adult subjects with TRD [3] = test: Phase 2b trial in TRD: Sheehan Disability Scale (SDS); conditions: 25 mg vs 1 mg, week 3
Procedure: as §1

[4] = test system: participants with TRD from Example 2; test: Long term follow-up study: MADRS responders, remitters, sustained responders to week 52
Procedure: The following example is a long term follow up of study of a sustained responder population from Example 2. 58 participants from Example 2 were selected for a long term 52 week follow up study. Of the 58 patients, 22 received a 25 mg dose of psilocybin, 19 received a 10 mg dose of psilocybin, and 17 received a 1 mg dose of psilocybin. […] None of the patients in this study received treatment for depression before their week 12 MADRS visit in Example 2. Patients were analyzed for a change in MADRS total score from Baseline to 12, 16, 20, 24, 28, 40, and 52 weeks.
The secondary endpoint of this study was to determine the change in MADRS total score from Baseline to 12, 16, 20, 24, 28, 40, and 52 weeks post treatment. […] Note, “n*” changed to account for subjects that dropped out the long term study.

CN(C)CCc1c[nH]c2cccc(OP(=O)(O)O)c12 [COMP360, psilocybin]
0/6: MADRS relaxed sustained responders ([4]; 25 mg (N = 22), Week 40) | MADRS remitters (MADRS total score≤10) ([4]; 25 mg (N = 22), Week 40) | MADRS sustained responders (response at Week 3 and all subsequent visits) ([4]; 25 mg (N = 22), Week 40) | MADRS remitters (MADRS total score≤10) ([4]; 25 mg (N = 22), Week 52) | MADRS sustained responders (response at Week 3 and all subsequent visits) ([4]; 25 mg (N = 22), Week 52)
−6.49: SDS treatment difference (adult subjects with TRD [3])
0.06: EQ-5D-3L total score, least squares mean treatment difference (adult subjects with TRD [1])
0/5: MADRS relaxed sustained responders ([4]; 1 mg (N = 17), Week 16) | MADRS remitters (MADRS total score≤10) ([4]; 1 mg (N = 17), Week 16) | MADRS responders (≥50% reduction from baseline in MADRS total score) ([4]; 1 mg (N = 17), Week 16) | MADRS sustained responders (response at Week 3 and all subsequent visits) ([4]; 1 mg (N = 17), Week 16) | MADRS remitters (MADRS total score≤10) ([4]; 10 mg (N = 19), Week 16) | MADRS sustained responders (response at Week 3 and all subsequent visits) ([4]; 10 mg (N = 19), Week 40) | MADRS sustained responders (response at Week 3 and all subsequent visits) ([4]; 10 mg (N = 19), Week 52)
0/8: MADRS remitters (MADRS total score≤10) ([4]; 1 mg (N = 17), Week 9)
0/3: MADRS relaxed sustained responders ([4]; 10 mg (N = 19), Week 20) | MADRS sustained responders (response at Week 3 and all subsequent visits) ([4]; 10 mg (N = 19), Week 20) | MADRS sustained responders (response at Week 3 and all subsequent visits) ([4]; 10 mg (N = 19), Week 24)
6.77: EuroQoL Visual Analogue Scale treatment difference (adult subjects with TRD [1])
0/4: MADRS relaxed sustained responders ([4]; 1 mg (N = 17), Week 20) | MADRS remitters (MADRS total score≤10) ([4]; 1 mg (N = 17), Week 20) | MADRS sustained responders (response at Week 3 and all subsequent visits) ([4]; 1 mg (N = 17), Week 20) | MADRS sustained responders (response at Week 3 and all subsequent visits) ([4]; 1 mg (N = 17), Week 24) | MADRS relaxed sustained responders ([4]; 1 mg (N = 17), Week 28) | MADRS remitters (MADRS total score≤10) ([4]; 1 mg (N = 17), Week 28) | MADRS sustained responders (response at Week 3 and all subsequent visits) ([4]; 1 mg (N = 17), Week 28) | MADRS relaxed sustained responders ([4]; 1 mg (N = 17), Week 40) | MADRS sustained responders (response at Week 3 and all subsequent visits) ([4]; 1 mg (N = 17), Week 40) | MADRS relaxed sustained responders ([4]; 1 mg (N = 17), Week 52) | MADRS remitters (MADRS total score≤10) ([4]; 1 mg (N = 17), Week 52) | MADRS responders (≥50% reduction from baseline in MADRS total score) ([4]; 1 mg (N = 17), Week 52) | MADRS sustained responders (response at Week 3 and all subsequent visits) ([4]; 1 mg (N = 17), Week 52) | MADRS sustained responders (response at Week 3 and all subsequent visits) ([4]; 10 mg (N = 19), Week 28)
−3.18 (−5.59, −0.77): PANAS negative affect, least squares mean (95% confidence intervals) treatment difference (adult subjects with TRD [2])
6.17 (3.53, 8.82): PANAS positive affect, least squares mean (95% confidence intervals) treatment difference (adult subjects with TRD [2])
0/11: MADRS remitters (MADRS total score≤10) ([4]; 1 mg (N = 17), Week 3)
0/7: MADRS relaxed sustained responders ([4]; 1 mg (N = 17), Week 12) | MADRS remitters (MADRS total score≤10) ([4]; 1 mg (N = 17), Week 12) | MADRS sustained responders (response at Week 3 and all subsequent visits) ([4]; 1 mg (N = 17), Week 12)
